This note sets out measurements from publication PMC9279635 (Acta Pharmaceutica Sinica. B, 2021).

As a reminder, the IC50 is the concentration at which inhibition is half-maximal.

The target in the assay is T1, DDR2 (Homo sapiens, UniProt Q16832).
T1 sequence (Q16832 22-855): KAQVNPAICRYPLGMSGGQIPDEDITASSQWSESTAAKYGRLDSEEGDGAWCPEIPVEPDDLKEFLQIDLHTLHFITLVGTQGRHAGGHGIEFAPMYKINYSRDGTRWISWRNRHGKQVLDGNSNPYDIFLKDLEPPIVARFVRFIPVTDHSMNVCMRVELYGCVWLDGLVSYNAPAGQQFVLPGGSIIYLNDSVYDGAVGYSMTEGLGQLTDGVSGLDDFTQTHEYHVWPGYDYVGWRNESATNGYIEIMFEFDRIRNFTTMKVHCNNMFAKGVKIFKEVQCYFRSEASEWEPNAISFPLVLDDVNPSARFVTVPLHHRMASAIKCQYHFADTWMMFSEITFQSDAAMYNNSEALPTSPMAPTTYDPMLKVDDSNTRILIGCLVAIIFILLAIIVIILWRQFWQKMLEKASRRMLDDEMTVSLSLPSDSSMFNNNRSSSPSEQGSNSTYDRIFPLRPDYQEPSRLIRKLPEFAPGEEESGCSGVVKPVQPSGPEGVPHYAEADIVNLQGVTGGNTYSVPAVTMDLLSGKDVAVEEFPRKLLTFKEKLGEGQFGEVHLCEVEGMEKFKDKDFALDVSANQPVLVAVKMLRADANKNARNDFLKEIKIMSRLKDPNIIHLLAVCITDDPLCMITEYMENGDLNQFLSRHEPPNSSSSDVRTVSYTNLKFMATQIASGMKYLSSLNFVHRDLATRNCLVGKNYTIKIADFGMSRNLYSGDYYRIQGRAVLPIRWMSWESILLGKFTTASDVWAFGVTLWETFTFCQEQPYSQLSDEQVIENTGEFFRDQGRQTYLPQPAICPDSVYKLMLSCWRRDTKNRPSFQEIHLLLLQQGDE
The assay is described as follows: ELISA kinase assay, DDR2. In kind it is biochemical. As to conditions: DDR2 IC50, two separate experiments.
In the case of `Cc1ccc(C(=O)Nc2cccc(C(F)(F)F)c2)cc1-c1ccc2nc(NC3CC3)ncc2c1` [Compound 16, 3-(2-(Cyclopropylamino)quinazolin-6-yl)-4-methyl-N-(3-(trifluoromethyl)phenyl)benzamide], the IC50 amounted to 9.9 ± 1 nM.
Compound `Cc1ccc(C(=O)Nc2cccc(C(F)(F)F)c2)cc1-c1ccc2nc(Nc3cccc(N4CCN(C)CC4)c3)ncc2c1` [Compound 21, 4-Methyl-3-(2-((3-(4-methylpiperazin-1-yl)phenyl)amino)quinazolin-6-yl)-N-(3-(trifluoromethyl)phenyl)benzamide] registered an IC50 of 6.3 ± 0.5 nM.
The compound `Cc1ccc(C(=O)Nc2cccc(C(F)(F)F)c2)cc1-c1ccc2nc(N)ncc2c1` [Compound 15, 3-(2-Aminoquinazolin-6-yl)-4-methyl-N-(3-(trifluoromethyl)phenyl)benzamide] yielded an IC50 of 1.9 ± 0.4 nM.
Then `Cc1ccc(C(=O)Nc2cccc(C(F)(F)F)c2)cc1-c1ccc2ncnc(N)c2c1` [Compound 14, 3-(4-Aminoquinazolin-6-yl)-4-methyl-N-(3-(trifluoromethyl)phenyl)benzamide], with 3.8 ± 0.2 nM.
Then `Cc1ccc(C(=O)Nc2cccc(C(F)(F)F)c2)cc1-c1ccc2c(c1)COCC2` [Compound 10, 3-(Isochroman-7-yl)-4-methyl-N-(3-(trifluoromethyl)phenyl)benzamide], with 20.9 ± 5.2 nM; and `Cc1ccc(C(=O)Nc2cccc(C(F)(F)F)c2)cc1-c1ccc2nc(NC3CCN(C)CC3)ncc2c1` [Compound 17, 4-Methyl-3-(2-((1-methylpiperidin-4-yl)amino)quinazolin-6-yl)-N-(3-(trifluoromethyl)phenyl)benzamide], with 10.5 ± 1 nM; and `Cc1ccc(C(=O)Nc2cccc(C(F)(F)F)c2)cc1-c1ccc2cnccc2c1` [Compound 12, 3-(Isoquinolin-6-yl)-4-methyl-N-(3-(trifluoromethyl)phenyl)benzamide], with 36.5 ± 1 nM.
As for `Cc1ccc(C(=O)Nc2cccc(C(F)(F)F)c2)cc1-c1ccc2ncncc2c1` [Compound 13, 4-Methyl-3-(quinazolin-6-yl)-N-(3-(trifluoromethyl)phenyl)benzamide], the figure is 2.6 ± 0.1 nM; as for `Cc1ccc(C(=O)Nc2cccc(C(F)(F)F)c2)cc1-c1ccc2ccncc2c1` [Compound 11, 3-(Isoquinolin-7-yl)-4-methyl-N-(3-(trifluoromethyl)phenyl)benzamide], 1.6 ± 0.1 nM.
As for `Cc1ccc(C(=O)Nc2cccc(C(F)(F)F)c2)cc1-c1ccc2nc(NCCN3CCOCC3)ncc2c1` [Compound 18, 4-Methyl-3-(2-((2-morpholinoethyl)amino)quinazolin-6-yl)-N-(3-(trifluoromethyl)phenyl)benzamide], the IC50 came to 3.4 ± 0.7 nM.
In turn, `Cc1ccc(C(=O)Nc2cccc(C(F)(F)F)c2)cc1-c1ccc2c(c1)NC(=O)C2` [Compound 9, 4-Methyl-3-(2-oxoindolin-6-yl)-N-(3-(trifluoromethyl)phenyl)benzamide] returned a half-inhibitory concentration (IC50) of 4.9 ± 1.1 nM.
In the case of `Cc1ccc(C(=O)Nc2cccc(C(F)(F)F)c2)cc1-c1ccc2nc(Nc3ccc(N4CCN(C)CC4)cc3)ncc2c1` [Compound 20, 4-Methyl-3-(2-((4-(4-methylpiperazin-1-yl)phenyl)amino)quinazolin-6-yl)-N-(3-(trifluoromethyl)phenyl)benzamide], it took 5.7 ± 0.3 nM to reach half-maximal inhibition (IC50).
As for `Cc1ccc(C(=O)Nc2cccc(C(F)(F)F)c2)cc1-c1ccc2nc(N3CCN(C)CC3)ncc2c1` [Compound 19, 4-Methyl-3-(2-(4-methylpiperazin-1-yl)quinazolin-6-yl)-N-(3-(trifluoromethyl)phenyl)benzamide], the figure is 42.4 ± 2.3 nM.
Then `Cc1ccc(C(=O)Nc2cccc(C(F)(F)F)c2)cc1-c1ccc2nc(Nc3cnn(C)c3)nc(N)c2c1` [Compound 23, 3-(4-Amino-2-((1-methyl-1H-pyrazol-4-yl)amino)quinazolin-6-yl)-4-methyl-N-(3-(trifluoromethyl)phenyl)benzamide], with 6.5 ± 1.5 nM.
